This is an account of results in US20180113119A1, “METHODS FOR CHARACTERIZING TIME-BASED HEPATOTOXICITY” (HUREL CORPORATION, priority 2015, published 2018).

Like-named read-outs stand apart in the source and are kept apart here.

The conditions of data set [1]: known profile of reference compound; cited from earlier work.
The test system of data set [2] is hepatocyte-stromal cell cocultures comprising primate primary hepatocytes. On the procedure: (§1) Cell viability was analyzed using a CellTiter-Blue (Promega) assay, n=4.
(§2) These are concentration dependent toxicity curves generated after 6 days of repeat compound exposure in the 4 different species. Each compound was dosed every 2 days starting on day 0. On the 6th day the Promega Celltiter blue assay was used to measure the conversion of resazurin to the fluorescent resorufin.
(§3) Cryopreserved human hepatocytes were obtained from Thermo Fisher (formerly Life Technologies Corporation). Cryopreserved non-human primate (cynomolgus monkey) hepatocytes were obtained from Thermo Fisher (formerly Life Technologies Corporation). Cryopreserved dog hepatocytes were obtained from IVT Bioreclamation. Cryopreserved rat hepatocytes were obtained from Thermo Fisher (formerly Life Technologies Corporation). The cryopreserved hepatocytes were removed from liquid nitrogen and thawed. After thawing, cells were re-suspended in medium and cell number and cell viability was determined using trypan blue exclusion. Stromal cells were passed in a CO2 incubator until used for experimental plating. On plating day cells were detached from the plate, washed, and re-suspended in medium. Cell number and viability were determined using trypan blue exclusion.
(§4) The stromal cells were growth arrested prior to seeding.
(§5) The graphs in FIGS. 11-13 present concentration dependent toxicity curves generated after 6 days of repeat compound exposure in human, dog, primate, and rat. Each compound was dosed every two days for treatment periods of two days, four days, and six days across a full range of concentrations. On the sixth day a Promega Celltiter blue assay was used to measure mitochondrial metabolic activity. That data was then used to generate a TC50 value. […] In FIG. 11 cyclophosphamide was administered every two days for treatment periods of two days, four days, and six days across a full range of concentrations.

For data set [3], the system named is hepatocyte-stromal cell cocultures comprising human primary hepatocytes. As for the experimental part: as §1, §2, §3, §4, §5
Data set [4] concerns hepatocyte-stromal cell cocultures comprising dog primary hepatocytes. As for the experimental part: as §1, §2, §3, §4, §5
In data set [5] the test system is hepatocyte-stromal cell cocultures comprising rat primary hepatocytes. As for the experimental part: as §1, §2, §3, §4, §5

As to `COc1ccccc1Oc1c(NS(=O)(=O)c2ccc(C(C)(C)C)cc2)nc(-c2ncccn2)nc1OCCO` [bosentan], in the data set on human hepatocytes, the “LC50 (TC50) at 24 hours” value was 757 µM. In addition, the “known in vivo hepatotoxicity” value in data set [1] is recorded as “strong in vivo hepatotoxicity”.
In the case of `Cc1c(C)c2c(c(C)c1O)CCC(C)(COc1ccc(CC3SC(=O)NC3=O)cc1)O2` (stereo not shown) [Troglitazone], the “LC50 (TC50)” value was determined as 207 µM in data set [2] (cynomolgus monkey, 6 days); 308 µM in data set [3] (human, 6 days); 267 µM in data set [4] (dog, 6 days); 317 µM in data set [5] (rat, 6 days).
As for `CN(C)CCCN1c2ccccc2Sc2ccc(Cl)cc21` [chlorpromazine], in the data set on human hepatocytes, the “LC50 (TC50) at 24 hours” value amounted to 21 µM.
Take `CC(C)NCC(O)COc1cccc2ccccc12` (stereo not shown) [propranolol]: the “known in vivo hepatotoxicity” value in data set [1] is “lack of hepatotoxicity”.
Consider `O=P1(N(CCCl)CCCl)NCCCO1` (stereo not shown) [Cyclophosphamide], for which the “LC50 (TC50)” value is 1,904 μM in data set [2] (Monkey, 6 days of repeat exposure, dosed every 2 days, Celltiter blue); 5,523 μM in data set [3] (Human, 6 days of repeat exposure, dosed every 2 days, Celltiter blue); 7,541 μM in data set [4] (Dog, 6 days of repeat exposure, dosed every 2 days, Celltiter blue); 1,506 μM in data set [5] (Rat, 6 days of repeat exposure, dosed every 2 days, Celltiter blue). The “effect of multiple dosing on cytotoxicity (cell viability)” value in data set [2] (primate, treatment periods of two, four and six days, CellTiter-Blue, n=4) is reported as “extending the duration of dosing increases the cyclophosphamide cytotoxicity”; in data set [3] (human, treatment periods of two, four and six days, CellTiter-Blue, n=4), “extending the duration of dosing increases the cyclophosphamide cytotoxicity”; in data set [4] (dog, treatment periods of two, four and six days, CellTiter-Blue, n=4), “extending the duration of dosing increases the cyclophosphamide cytotoxicity”; in data set [5] (rat, treatment periods of two, four and six days, CellTiter-Blue, n=4) it was “extending the duration of dosing increases the cyclophosphamide cytotoxicity”.
